Assay results reported in US10100088B2, “Glycopeptide derivatives for the preservation and protection of biological materials and microorganisms” (TFCHEM, priority 2014, dated 2018).
Read-outs that look alike come from different tables or passages of the source.

How the values were obtained:
[1] = test system: neonatal skin fibroblasts (CCD-27SK, ATCC CRL-1475); conditions: for Percentage of viability: 5 mg/mL in serum free medium
Procedure: II-1. Effect of Glycopeptide 17 on the Preservation/Protection of Neonatal Skin Fibroblasts Under Starvation Conditions. Evaluation by Trypan Blue Exclusion Method.
• The neonatal skin fibroblasts (Cell line: CCD-27SK, ATCC number CRL-1475) were grown with DMEM medium supplemented with Fetal Bovine Serum 10% final, antibiotics (Penicillin/Streptomycin) 1% final and Amphotericin B 0.1% final. • Fibroblasts were grown in 75 cm^2 culture flask to 80% confluence, in 37° C. and 10% CO2 incubator. The medium was changed every two days by 37° C. preheated fresh medium. Starvation Medium • This medium was composed of 45% subculturing medium without Fetal Bovine Serum mixed with 55% of Phosphate Buffer Saline 1× containing EDTA (final concentration of 0.45 mM). This was referred to as serum-free medium. Product Preparation • Compound 17 (MM=603.4 g/mol) was diluted in starvation medium to 5 mg/ml final and pH was adjusted at 7.4 by addition of NaOH 1N. General Experimental Procedure Assays on 96 Well Plates • Fibroblast cells were concentrated to 2.10^5 cells/ml and 100 μl of cell suspension was added in wells of a 96-well plate and incubated in 37° C. and 10% CO2 incubator for 4 hours. • After cell adhesion the medium was changed and plates were incubated (37° C.-10% CO2) to perform the assay as follow: • One plate for each sampling times: D0, D3, D4, D5, D6, D7, D10, D12 days • Three wells for each condition (triplicate count) added with 120 μl of culture medium (surviving control), starvation medium (serum-free control) or compound 17 solution at 5 mg/ml. […] So, only the dead cells are blue at microscopic observation. • For sampling, 110 μl of Trypan Blue (SIGMA T8154) was added to 110 μl of trypsinated cell suspension of matching well for counting. • […] of the trypan blue/cell mixture are dropped to a hemacytometer. Cells are counting by using a Neubauer-counting chamber. The unstained (viable) and stained (nonviable) cells are counted separately on 9 areas of 1 mm^2 forming a large square of 9 mm^2 and added to obtain the total number of cells per sample. An average of three counts was used to calculate the viability percentage as: [Number of viable cells/total number of cells]*100 • The cell viability percentages from cultures under starvation conditions were compared with control culture for several days after their addition (D0, D3, D4, D5, D6, D7, D10, D12).

[2] = test system: human neonatal skin fibroblasts; conditions: for Lysis following bacterial stress at 48 h (OD490 nm): LDH release
Procedure: The medium was changed every two days by 37° C. preheated fresh medium.

[3] = test system: human neonatal skin fibroblasts; assay: UV stress (11 J/cm^2), neutral red uptake viability; type: cell-based
Procedure: (§1) The neutral red uptake assay was used for the determination of cell viability. This assay is based on the ability of viable cells to incorporate and bind the supravital dye neutral red in its lysosomes. So, only the viable cells are dyed. At different times after the stress assay (T0), the plates were incubated with neutral red solution for 3.5 hours. The cells are subsequently washed, the dye is extracted in each well and the absorbance is read using a spectrophotometer.
(§2) For sampling, 1 mL of DMEM (without phenol red indicator) with neutral red (OD=0.110) was added to the cells for 3.5 hours (37° C., 10% CO2). After incubation, the medium was removed, two washes of PBS were realized and 1 mL of extraction solution (absolute ethanol 49%, ultrapure water 49%, glacial acetic acid 2%) was added. Plates were placed 15 minutes on rotary shaker in the dark before reading OD at 540 nm.
(§3) The percentage of viability for each assay was calculated as follow: % viability assay=(OD540 nm of tested solution−blank)*100/(OD540 nm of positive control−blank).

[4] = test system: human neonatal skin fibroblasts (CCD-27SK, ATCC CRL-1475); assay: Starvation (serum deprivation) stress, neutral red uptake viability; type: cell-based
Procedure: Induced stresses were performed as follow: Starvation
as §1, §2
The OD540 nm average value of positive control was considered as 100% of viability.
as §3

C[C@H](NC(=O)[C@H](C)NC(=O)[C@@H](N)CCCCNCC(F)(F)C1(O)O[C@H](CO)[C@H](O)[C@H](O)[C@H]1O)C(=O)O.Cl.Cl (stereo partly shown) [Compound 17]
Percentage of viability ([1]; D 0): 96.69 ± 1.85%
Percentage of viability ([1]; D 0, listed as compound 17): 97%
Percentage of viability ([1]; D 3): 91.03 ± 1.88%
Percentage of viability ([1]; D 4): 88.98 ± 2.48%
Percentage of viability ([1]; D 5): 86.65 ± 4.26%
Percentage of viability ([1]; D 6): 85.53 ± 1.57%
Percentage of viability ([1]; D 7): 83.20 ± 3.72%
Percentage of viability ([1]; D 10): 80.62 ± 3.72%
Percentage of viability ([1]; D 12): 77.03 ± 2.02%
Percentage of viability ([1]; D 12, listed as compound 17): 77%
preservative/protective effect on skin fibroblasts (in words) ([1]; starvation medium, 5 mg/ml, 12 days): significant preservative/protective effect
Lysis following bacterial stress at 48 h (OD490 nm) ([2]; 5 mg/mL): 0.333 ± 0.003 OD490 nm
protective effect against bacterial stress (in words) ([2]; 5 mg/ml to 15 mg/ml): protective effect on cells against bacterial stress
Lysis following bacterial stress at 48 h (OD490 nm) ([2]; 10 mg/mL): 0.293 ± 0.002 OD490 nm
Lysis following bacterial stress at 48 h (OD490 nm) ([2]; 15 mg/mL): 0.270 ± 0.005 OD490 nm
preservative/protective effect against UV stress (in words) [3]: preservative/protective effect against UV stress
Percentage of viability following UV stress (11 J/cm^2) ([3]; 1 h after irradiation, 5 mg/mL): 55%
Percentage of viability following UV stress (11 J/cm^2) ([3]; 1 h after irradiation, 10 mg/mL): 53%
Percentage of viability following UV stress (11 J/cm^2) ([3]; 1 h after irradiation, 15 mg/mL): 50%
Percentage of viability following UV stress (11 J/cm^2) ([3]; 3 h after irradiation, 5 mg/mL): 63%
Percentage of viability following UV stress (11 J/cm^2) ([3]; 3 h after irradiation, 10 mg/mL): 46%
Percentage of viability following UV stress (11 J/cm^2) ([3]; 3 h after irradiation, 15 mg/mL): 50%
Percentage of viability following UV stress (11 J/cm^2) ([3]; 24 h after irradiation, 5 mg/mL): 82%
Percentage of viability following UV stress (11 J/cm^2) ([3]; 24 h after irradiation, 10 mg/mL): 94%
Percentage of viability following UV stress (11 J/cm^2) ([3]; 24 h after irradiation, 15 mg/mL): 84%
growth or regenerative effect on stressed cells (in words) ([3]; viability increased in time after UV): growth or regenerative effect
Percentage of viability ([4]; D 1 after serum deprivation, 5 mg/mL (Table 2)): 75%
Percentage of viability ([4]; D 1 after serum deprivation, 10 mg/mL (Table 2)): 71%
Percentage of viability ([4]; D 4 after serum deprivation, 5 mg/mL (Table 2)): 54%
Percentage of viability ([4]; D 4 after serum deprivation, 10 mg/mL (Table 2)): 61%
Percentage of viability ([4]; D4 after serum deprivation, 10 mg/mL (Table 4)): 116%
Percentage of viability ([4]; D 7 after serum deprivation, 5 mg/mL (Table 2)): 45%
Percentage of viability ([4]; D 7 after serum deprivation, 10 mg/mL (Table 2)): 55%
preservative/protective effect on skin fibroblasts (in words) ([4]; starvation medium): significant preservative/protective effect
